Test results reported in ChEMBL document CHEMBL3507680, “University of Dundee, Gates Library screen for HepG2 cell viability”.

Test: Human HepG2 cell viability assay in 384 well format
Format: toxicity, cell-based
Parameters: dose 125 nL, time 70.5 hour; cytotoxicity at 70.5 h: concentration not given beside the values
Conditions: HepG2 cells, read-out: Inhibition

COc1ccc(Cl)cc1CS(=O)(=O)Cc1nc(C)no1
cytotoxicity at 70.5 h: 15.2%

O=C(CN1CCCS1(=O)=O)Nc1ccc(OC(F)F)cc1
cytotoxicity at 70.5 h: -9.68%

COc1ccc(Cl)cc1CS(=O)(=O)Cc1cc(C)on1
cytotoxicity at 70.5 h: -5.88%

Cc1ccc(C(=O)NCCCn2cccn2)c(=O)[nH]1
cytotoxicity at 70.5 h: -0.293%

Cc1ccc(CNC(=O)Nc2nnc(C(C)C)s2)n1C
cytotoxicity at 70.5 h: -4.19%

Cc1ccc(CNC(=O)Nc2nncs2)n1C
cytotoxicity at 70.5 h: -7.51%

CC(C)(C)c1ccc(S(=O)(=O)CCNC(=O)c2cnccn2)cc1
cytotoxicity at 70.5 h: 10.2%

COCCS(=O)(=O)N(Cc1cscn1)c1ccccc1
cytotoxicity at 70.5 h: -5.03%

Cc1nn(C)c(Cl)c1C1CCCN1Cc1nnc(C2CC2)n1C (configuration not stated)
cytotoxicity at 70.5 h: -0.0718%

CN(C)S(=O)(=O)N(Cc1cscn1)c1ccccc1
cytotoxicity at 70.5 h: 12.4%

Cc1ccc(C(=O)OC(C)Cn2cccn2)c(=O)[nH]1 (configuration not stated)
cytotoxicity at 70.5 h: -0.535%

O=C(CN1CCCS1(=O)=O)Nc1cccc(COC2CCCCC2)c1
cytotoxicity at 70.5 h: -2.5%

COc1cccc2c1CCC2NC(=O)NCc1csc(N(C)C)n1 (configuration not stated)
cytotoxicity at 70.5 h: 9.68%

COc1ccccc1C(C#N)NC(=O)c1cccc2c1oc(=O)n2C (configuration not stated)
cytotoxicity at 70.5 h: -6.2%

COC(C)c1noc(CN(C)c2ncc(Br)cn2)n1 (configuration not stated)
cytotoxicity at 70.5 h: -3.46%

COc1c(C2CCCN2Cc2nnc(C3CC3)o2)c(C)nn1C (configuration not stated)
cytotoxicity at 70.5 h: -4.73%

CN(CCc1ccncc1)C(=O)c1sccc1OC(F)F
cytotoxicity at 70.5 h: -10.6%

COCCNc1ccc(CNCc2cnc3nc(C)cc(C)n23)cc1
cytotoxicity at 70.5 h: -9.55%

Cc1cc(C)n2c(CNCCNc3ccccc3)cnc2n1
cytotoxicity at 70.5 h: -1.23%

CCn1cnnc1CNS(=O)(=O)N1CCCC1c1ccco1 (configuration not stated)
cytotoxicity at 70.5 h: -9.43%

CN(Cc1ccc(F)c(F)c1)Cc1cc2c(cc1Br)OCCO2
cytotoxicity at 70.5 h: -8.74%

Cc1ccc(CN(C(=O)NCC2CCS(=O)(=O)C2)C2CC2)o1 (configuration not stated)
cytotoxicity at 70.5 h: -7.11%

CC(C)c1nc(CSc2nnc(-c3cccs3)n2CC(N)=O)no1
cytotoxicity at 70.5 h: -9.43%

CC(C)c1cc(NC(=O)Cn2ccc(=O)c3ccccc32)[nH]n1
cytotoxicity at 70.5 h: 5.53%

Cc1cc(NC(=O)Cn2ccc(=O)c3ccccc32)[nH]n1
cytotoxicity at 70.5 h: -3.31%

CC(C)CC(=O)N1Cc2ccccc2CC1C(=O)Nc1nncs1 (configuration not stated)
cytotoxicity at 70.5 h: 1.18%

CCc1nnc(CN2CC(n3cccn3)C2)o1
cytotoxicity at 70.5 h: -4.74%

CN(Cc1nc2ccccc2n1C)C(=O)CCc1cscn1
cytotoxicity at 70.5 h: -1.17%

CCOC(=O)C1(O)CCN(C(=O)Nc2ccc(CC)cc2)CC1
cytotoxicity at 70.5 h: -4.17%

NS(=O)(=O)c1ccc(N2CCN(CCCc3cn[nH]c3)CC2)cc1
cytotoxicity at 70.5 h: 15.8%

COCc1cccc(C(=O)N2CCCN(C(=O)OCC(C)C)CC2)c1
cytotoxicity at 70.5 h: -5.18%

CCc1ccc(C2CCCN2C(=O)CNC(=O)CCC(C)C)o1 (configuration not stated)
cytotoxicity at 70.5 h: -1.81%

CCc1ccc(C2CCCN2C(=O)NCC(=O)NCC(C)C)o1 (configuration not stated)
cytotoxicity at 70.5 h: 21.4%

Cc1cc(NC(=O)N2CCOCC2)nn1-c1cccc(Cl)c1
cytotoxicity at 70.5 h: -2.25%

CCc1ncc2c(n1)CN(Cc1cn3ccsc3n1)CC2
cytotoxicity at 70.5 h: 9.84%

CCCC(=O)N1CCCN(C(=O)Nc2ccc(C)s2)CC1
cytotoxicity at 70.5 h: -4.08%

O=C(c1ccc(OCC2CC2)cc1)N1CCOCC1c1ncon1 (configuration not stated)
cytotoxicity at 70.5 h: 1.72%

Cn1c(NCC(=O)N2CCCC2)c(C#N)c(=O)n(C)c1=O
cytotoxicity at 70.5 h: 12.4%

O=C(Cn1cccnc1=O)NCC1Cc2ccccc2O1 (configuration not stated)
cytotoxicity at 70.5 h: -9.82%

CC1CN(C(=O)NCc2cnn(-c3ccc(F)cc3F)c2)CCO1 (configuration not stated)
cytotoxicity at 70.5 h: -11.2%

CCNC(=O)NCc1cnn(-c2ccc(F)cc2F)c1
cytotoxicity at 70.5 h: -10.2%

Cc1ccsc1C(Cc1ccccc1)NC(=O)CNC(=O)C1CC1 (configuration not stated)
cytotoxicity at 70.5 h: -3.91%

CCNC(=O)CCC(=O)NC(Cc1ccccc1)c1sccc1C (configuration not stated)
cytotoxicity at 70.5 h: -7.03%

CC(=O)c1ccc(C(=O)Nc2ccnc(N(C)C)n2)cc1
cytotoxicity at 70.5 h: 6.64%

CSCC(=O)Nc1ncc(I)cc1C
cytotoxicity at 70.5 h: 11.6%

COc1cccc(CC(=O)N2CCN(c3cccc(C)c3)C(C)C2)c1 (configuration not stated)
cytotoxicity at 70.5 h: 0.115%

Clc1ccc(C2(NCc3noc(C4CC4)n3)CCC2)cc1
cytotoxicity at 70.5 h: -5.74%
